Measurements taken from patent US7838463B2, “Safeners based on acrylic-aliphatic carboxylic acid derivatives” (Bayer CropScience AG, priority 2003, dated 2010).

How the values were obtained:
Assay type in all cases: in vivo
[1] = test system: Zea mays (corn), cv. 'Lorenzo'; assay: Post-emergence application of herbicide H2 (foramsulfuron) and safener by the tank mix method: crop damage; conditions: safener 250 g a.i./ha + herbicide H2 (foramsulfuron) 40 g a.i./ha, post-emergence tank mix; for Safener action as % damage reduction in crop plants: ZEAMA, versus herbicide alone; for % damage in ZEAMA: visual scoring four weeks after application
Description: Seeds of various crop plants and weed species were sown in sandy loam soil in round plastic pots of a diameter of 13 cm and covered with a layer of sandy loam of a thickness of about 1 cm. The pots were placed in a greenhouse under favorable growth conditions for a period of about two to three weeks, allowing the plants to reach a growth stage of 2 to 4 leaves. The herbicides in the form of liquid (for example emulsion concentrates) or dry (for example water-dispersible powders) formulations were mixed with a standard additive (based on rapeseed oil methyl ester), diluted with deionized water to the required concentrations and applied to the green parts of the plants and the uncovered part of the soil surface with a spray bar using a water application rate of 300 liters per hectare. In the experiment shown below, safener and the herbicide foramsulfuron were in each case used as 20 percent strength water-dispersible powder (results see table 1.2.1). The pots were placed in a greenhouse under favorable growth conditions. Visual scoring of the herbicidal action was carried out four weeks after the herbicide application. Evaluation was carried out on a percentage basis by comparison with untreated control plants (0%=no noticeable effect compared with the untreated plant, 100%=treated plant dies).

[2] = test system: Zea mays (corn), cv. 'Lorenzo'; assay: Post-emergence application of herbicide H3 (glufosinate-ammonium) and safener by the tank mix method: crop damage; conditions: safener 250 g a.i./ha + herbicide H3 (glufosinate-ammonium) 250 g a.i./ha, post-emergence tank mix; for Safener action as % damage reduction in crop plants: ZEAMA, versus herbicide alone; for % damage in ZEAMA: visual scoring four weeks after application
Description: (§1) Seeds of various crop plants and weed species were sown in sandy loam soil in round plastic pots of a diameter of 13 cm and covered with a layer of sandy loam of a thickness of about 1 cm. The pots were placed in a greenhouse under favorable growth conditions for a duration of about two to three weeks, allowing the plants to reach a growth stage of 2 to 4 leaves. The herbicides, in the form of liquid (for example emulsion concentrates, aqueous solutions) or dry (for example water-dispersible powders) formulations, were diluted with deionized water to the required concentrations and applied to the green parts of the plants and the uncovered part of the surface of the soil with a spray bar using a water application rate of 300 liters per hectare. In the experiment shown below, the safeners were used as 20 percent strength water-dispersible powders and the herbicide glufosinate-ammonium as a commercial 20 percent strength aqueous surfactant-containing solution (results see table 1.2.2).
(§2) The pots were placed in a greenhouse under favorable growth conditions. Visual scoring of the herbicidal action was carried out four weeks after the herbicidal application. Evaluation was carried out on a percentage basis by comparison with untreated control plants (0%=no noticeable effect compared with the untreated plant, 100%=treated plant dies).

Setaria viridis = assay: Pre-emergence application of herbicide H1 (isoxaflutole) and safener by the tank mix method: herbicidal action; conditions: safener 250 g a.i./ha + herbicide H1 (isoxaflutole) 100 g a.i./ha, pre-emergence tank mix; four weeks
Procedure: (§3) Seeds of various crop plants and weed species were sown in sandy loam soil in round plastic pots of a diameter of 13 cm and covered with a layer of sandy loam of a thickness of about 1 cm. Herbicides and safeners in the form of liquid (for example emulsion concentrates) or dry (for example water-dispersible powders) formulations were diluted with deionized water to the required concentrations and applied to the surface of the soil with a spray bar using a water application rate of 300 liters per hectare. In the experiment shown below, the safeners were used as 20 percent strength water-dispersible powders and the herbicide isoxaflutole was used as an aqueous suspension concentrate (see table 1.1.1). The pots were placed in a greenhouse under favorable growth conditions. Visual scoring of the herbicidal action was carried out four weeks after the herbicide application. Evaluation was carried out on a percentage basis by comparison with untreated control plants (0%=no noticeable effect compared with the untreated plant, 100%=treated plant dies).

Chenopodium album [3] = assay: as above; conditions: safener 250 g a.i./ha + herbicide H1 (isoxaflutole) 100 g a.i./ha, pre-emergence tank mix; four weeks
Procedure: as §3

[4] = test system: Zea mays (corn), cv. 'Lorenzo'; assay: Post-emergence application of herbicide H2 (foramsulfuron) after seed dressing with safener; conditions: seed dressing with safener 1 g a.i./kg of seed; for Safener action as % damage reduction in crop plants: ZEAMA, herbicide H2 (foramsulfuron) 40 g a.i./ha post-emergence, versus untreated seed; for % damage in ZEAMA: then herbicide H2 (foramsulfuron) 40 g a.i./ha post-emergence, four weeks
Procedure: The number of crop plant seeds required for each application rate of safener was calculated. Sufficient seeds were weighed-out into glass bottles having a screw-on lid. The volume of the glass bottles was approximately twice that of the seeds weighed out. The safeners were formulated as 20 percent strength water-dispersible powders. These formulations were weighed out to give the required application rates (g of a.i./kg of seed). The samples were added to the seed in the glass containers, and sufficient water to form a suitable seed dressing was then added. The glass bottles were closed and then mounted in an overhead shaker (which turns the bottles at moderate speed for a period of up to one hour) so that the seeds were uniformly covered with the seed dressing. The bottles were opened and the seed was ready for use in pre-emergence or post-emergence experiments, as described below. The seeds treated with safener and untreated seeds were sown in sandy loam soil in round plastic pots of a diameter of 13 cm and covered with a layer of sandy loam of a thickness of about 1 cm. The pots were placed in a greenhouse under favorable growth conditions for a period of about two to three weeks, allowing the plants to reach a growth stage of 2 to 4 leaves. The herbicides in the form of liquid (for example emulsion concentrates) or dry (for example water-dispersible powders) formulations were mixed with a standard additive (based on rapeseed oil methyl ester), diluted with deionized water to the required concentrations and applied to the green parts of the plants and the uncovered part of the soil surface with a spray bar using a water application rate of 300 liters per hectare. In the experiment shown below, the herbicide foramsulfuron was used as 20 percent strength water-dispersible powder (results see table 2.3.1). The pots were placed in a greenhouse under favorable growth conditions. Visual scoring of the herbicidal action was carried out four weeks after the herbicide application. Evaluation was carried out on a percentage basis by comparison with untreated control plants (0%=no noticeable effect compared with the untreated plant, 100%=treated plant dies).

Amaranthus retroflexus = assay: Post-emergence application of herbicide H3 (glufosinate-ammonium) and safener by the tank mix method: herbicidal action; conditions: safener 250 g a.i./ha + herbicide H3 (glufosinate-ammonium) 250 g a.i./ha, post-emergence tank mix; four weeks
Description: as §1, §2

Chenopodium album [5] = assay: as above; conditions: safener 250 g a.i./ha + herbicide H3 (glufosinate-ammonium) 250 g a.i./ha, post-emergence tank mix; four weeks
Description: as §1, §2

[6] = test system: Zea mays (corn), cv. 'Lorenzo'; assay: Pre-emergence application of herbicide H1 (isoxaflutole) and safener by the tank mix method: crop damage; conditions: safener 250 g a.i./ha + herbicide H1 (isoxaflutole) 100 g a.i./ha, pre-emergence tank mix; for Safener action as % damage reduction in crop plants: ZEAMA, versus herbicide alone; for % damage in ZEAMA: visual scoring four weeks after application, 0%=no effect, 100%=plant dies
Procedure: as §3

Structure (SMILES) | Safener action as % damage reduction in crop plants [1] [%] | % damage in ZEAMA [1] [%] | Safener action as % damage reduction in crop plants [2] [%] | % damage in ZEAMA [2] [%] | Herbicidal action as % damage in SETVI (Setaria viridis) [%] | Herbicidal action as % damage in CHEAL (Chenopodium album [3]) [%] | Safener action as % damage reduction in crop plants [4] [%] | % damage in ZEAMA [4] [%] | Herbicidal action as % damage in AMARE (Amaranthus retroflexus) [%] | Herbicidal action as % damage in CHEAL (Chenopodium album [5]) [%] | Safener action as % damage reduction in crop plants [6] [%] | % damage in ZEAMA [6] [%]
O=C(O)C=Cc1ccccc1O [Comp. 17, 2-hydroxycinnamic acid] | 78 | 8 | 61 | 24 | 96 | 94 | 81 | 6 | 95 | 97 | 82 | 5
O=C(O)C=Cc1ccc(Cl)cc1Cl [Comp. 155, 2,4-dichlorocinnamic acid] | 83 | 6 | 66 | 21 | 95 | 95 | 88 | 4 | 94 | 92 | 74 | 7
